The results in this text go back to ChEMBL document CHEMBL1137274, “Discovery and synthesis of tetrahydroindolone-derived carbamates as Kv1.5 blockers” (Bioorg Med Chem Lett, 2006).

Assay [1] deals with T1, Potassium voltage-gated channel subfamily A member 5 (Homo sapiens, UniProt P22460). Kind of assay: Inhibition of Kv1.5 expressed in LTK- cells by whole cell patch clamp assay at 1uM. The format is functional, cell-based.
For assay [2], the species on record is Homo sapiens. Kind of assay: Selectivity for Kv1.5 compared to hERG. It counts as functional.
For assay [3], the target named is T1, Potassium voltage-gated channel subfamily A member 5. Kind of assay: Inhibition of Kv1.5 expressed in LTK- cells by whole cell patch clamp assay. The format is functional, cell-based.
Assay [4] addresses Voltage-gated inwardly rectifying potassium channel KCNH2 (Homo sapiens, UniProt Q12809). In words: Inhibition of hERG expressed in HEK cells by whole cell patch clamp assay. It counts as toxicity, cell-based, HEK293.
Assay [5] concerns the target Voltage-gated L-type calcium channel (Homo sapiens, UniProt Q13936+Q13698+Q01668+O60840). In words: Inhibition of L-type calcium channel by FLIPR assay. It counts as functional.
For assay [6], the species on record is Homo sapiens. Kind of assay: Selectivity for Kv1.5 compared to L-type calcium channel. The format is functional.

A value given as a limit tells only on which side of the number the result lay.

T1 sequence (P22460 whole entry): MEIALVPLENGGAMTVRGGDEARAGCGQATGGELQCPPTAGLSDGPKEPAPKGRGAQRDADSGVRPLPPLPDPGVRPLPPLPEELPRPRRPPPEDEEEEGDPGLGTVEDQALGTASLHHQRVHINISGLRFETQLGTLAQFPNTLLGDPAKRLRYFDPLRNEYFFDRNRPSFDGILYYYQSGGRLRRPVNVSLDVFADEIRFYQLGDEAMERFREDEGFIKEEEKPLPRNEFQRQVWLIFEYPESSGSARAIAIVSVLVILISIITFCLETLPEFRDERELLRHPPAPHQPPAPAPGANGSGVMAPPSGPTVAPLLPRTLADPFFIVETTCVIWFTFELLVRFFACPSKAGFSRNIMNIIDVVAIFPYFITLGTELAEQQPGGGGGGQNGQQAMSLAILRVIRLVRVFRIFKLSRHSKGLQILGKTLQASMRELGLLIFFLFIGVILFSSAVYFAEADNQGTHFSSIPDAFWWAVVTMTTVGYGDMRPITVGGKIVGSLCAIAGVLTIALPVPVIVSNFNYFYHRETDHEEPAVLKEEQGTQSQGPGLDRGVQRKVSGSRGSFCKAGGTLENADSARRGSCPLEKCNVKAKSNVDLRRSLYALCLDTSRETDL
Sequence of Voltage-gated inwardly rectifying potassium channel KCNH2 (Q12809 whole entry): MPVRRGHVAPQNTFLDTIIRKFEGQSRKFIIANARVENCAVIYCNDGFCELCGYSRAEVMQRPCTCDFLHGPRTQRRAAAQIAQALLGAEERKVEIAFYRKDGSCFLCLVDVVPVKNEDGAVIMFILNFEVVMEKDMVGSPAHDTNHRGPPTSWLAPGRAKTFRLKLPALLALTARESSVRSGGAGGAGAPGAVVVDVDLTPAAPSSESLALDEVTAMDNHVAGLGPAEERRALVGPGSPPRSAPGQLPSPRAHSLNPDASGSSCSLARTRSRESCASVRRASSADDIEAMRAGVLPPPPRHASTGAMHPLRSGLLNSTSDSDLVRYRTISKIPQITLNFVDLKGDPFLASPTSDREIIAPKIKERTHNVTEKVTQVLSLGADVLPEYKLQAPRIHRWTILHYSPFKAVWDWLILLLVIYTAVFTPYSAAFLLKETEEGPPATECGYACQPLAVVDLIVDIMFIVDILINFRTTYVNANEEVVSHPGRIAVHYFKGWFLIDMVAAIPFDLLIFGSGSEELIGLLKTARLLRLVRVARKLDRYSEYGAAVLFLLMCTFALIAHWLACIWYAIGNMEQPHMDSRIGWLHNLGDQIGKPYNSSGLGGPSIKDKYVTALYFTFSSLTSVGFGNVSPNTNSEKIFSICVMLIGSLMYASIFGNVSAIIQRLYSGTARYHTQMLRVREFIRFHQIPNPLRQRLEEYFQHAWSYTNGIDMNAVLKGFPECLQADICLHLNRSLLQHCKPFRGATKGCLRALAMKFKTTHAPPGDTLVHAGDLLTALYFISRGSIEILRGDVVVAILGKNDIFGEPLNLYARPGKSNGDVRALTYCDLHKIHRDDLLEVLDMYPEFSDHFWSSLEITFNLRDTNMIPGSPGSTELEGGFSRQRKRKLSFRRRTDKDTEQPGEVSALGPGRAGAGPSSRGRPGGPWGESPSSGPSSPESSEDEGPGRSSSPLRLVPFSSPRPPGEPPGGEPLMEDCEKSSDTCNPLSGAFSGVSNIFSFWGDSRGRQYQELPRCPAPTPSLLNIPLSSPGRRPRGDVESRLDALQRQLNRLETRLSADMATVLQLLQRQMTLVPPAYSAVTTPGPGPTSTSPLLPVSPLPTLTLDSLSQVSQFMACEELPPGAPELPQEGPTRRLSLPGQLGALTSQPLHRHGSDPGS

As for `CCc1c2c(n(CC)c1C)CCC/C2=N\OC(=O)Nc1ccccc1`, the inhibition in assay [1] was determined as 35%.

As for `CCc1c(C)[nH]c2c1/C(=N/OC(=O)Nc1ccc(C(C)=O)cc1)CCC2`, in assay [1], the inhibition is 91%.

On to `O=C(Nc1ccccc1)O/N=C1\CCCC2=C1C1CCCC1N2` (stereo unspecified), for which the inhibition in assay [1] was 79%.

In turn, `CCc1c(C)[nH]c2c1/C(=N/OC(=O)Nc1ccc(C#N)cc1)CCC2` displayed an inhibition in assay [1] of 95%. `CCc1c(C)[nH]c2c1/C(=N/OC(=O)Nc1ccc(OC)cc1)CCC2` displayed an inhibition in assay [1] of 90%. `CCc1c(C)[nH]c2c1/C(=N/OC(=O)NCc1ccccc1)CCC2` registered an inhibition in assay [1] of 70%. Same read-out and setting: the result for `CCc1c(C)[nH]c2c1/C(=N/OC(=O)NCCc1cccnc1)CCC2` reads 25%. In the case of `CCc1c2c(n(C)c1CC)CCC/C2=N\OC(=O)Nc1ccccc1`, the Ratio in assay [2] and in assay [6] was > 450 throughout. Moreover, the results for the half-inhibitory concentration (IC50) in assay [3], in assay [4] and in assay [5] were 21 nM, > 30000 nM and 20000 nM, respectively. In assay [1], this compound displayed an inhibition of 99%. `CC(=O)c1ccc(NC(=O)O/N=C2\CCCc3c2c(C(C)C)c(C)n3C)cc1`: in assay [1], the inhibition came to 96%.

Regarding `CCc1c(C)[nH]c2c1/C(=N/OC(=O)NCCc1ccncc1)CCC2`, the inhibition in assay [1] was 20%.

Consider `CCc1[nH]c2c(c1CC)/C(=N/OC(=O)Nc1ccccc1)CCC2`, for which, in assay [1], the inhibition stood at 84%. As for `CCc1c2c(n(CC)c1C)CCC/C2=N\OC(=O)Nc1ccc(C(C)=O)cc1`, in assay [1], the inhibition is 71%. With `CCc1[nH]c2c(c1CC)/C(=N/OC(=O)Nc1ccc(Cl)cc1)CCC2`, the inhibition in assay [1] is 87%. In the case of `Cc1[nH]c2c(c1C)/C(=N/OC(=O)Nc1ccc(Cl)cc1)CCC2`, the inhibition in assay [1] stood at 78%.

As for `CCc1c(C)[nH]c2c1/C(=N/OC(=O)Nc1ccc(C(C)(C)C)cc1)CCC2`, in assay [1], the inhibition stood at 6%. For `CCc1c(C)[nH]c2c1/C(=N/OC(=O)Nc1ccccc1)CCC2`, the Ratio in assay [2] and in assay [6] was > 450 each time. Further, the results for the IC50 in assay [3], in assay [4] and in assay [5] were 67 nM, > 30000 nM and > 30000 nM, respectively. In assay [1], this compound showed an inhibition of 91%. In turn, `CCc1c(C)[nH]c2c1/C(=N/OC(=O)Nc1ccc(C)cc1)CCC2` gave an inhibition in assay [1] of 85%. Regarding `CCc1c(C)[nH]c2c1/C(=N/OC(=O)Nc1ccc(F)cc1)CCC2`, the half-maximal inhibitory concentration (IC50) in assay [3] is 275 nM. In assay [1], this compound returned an inhibition of 90%.

In assay [1], `CCc1c(C)[nH]c2c1/C(=N/OC(=O)Nc1ccc(Cl)cc1)CCC2` gave an inhibition of 91%. On the same count and under the same terms, the figure for `CCc1c(C)[nH]c2c1/C(=N/OC(=O)NCCc1ccccc1)CCC2` is 76%.

As to `CCc1c(C)[nH]c2c1/C(=N/OC(=O)Nc1ccc(C(C)C)cc1)CCC2`, the inhibition in assay [1] is 51%.

Consider `CCc1c(C)[nH]c2c1/C(=N/OC(=O)Nc1ccccc1SC)CCC2`, for which the inhibition in assay [1] amounted to 41%.

`CC(=O)c1ccc(NC(=O)O/N=C2\CCCc3[nH]c(C)c(C)c32)cc1`: the inhibition in assay [1] was 60%.

In turn, `CCc1c(C)[nH]c2c1/C(=N/OC(=O)NCCc1ccccn1)CCC2` registered an IC50 in assay [3] of 547 nM. The compound further yielded an inhibition in assay [1] of 91%.

As to `CCc1c2c(n(C)c1C)CCC/C2=N\OC(=O)Nc1ccccc1`, the inhibition in assay [1] was determined as 77%. `CCc1c(C)[nH]c2c1/C(=N/OC(=O)Nc1ccc(SC)cc1)CCC2` showed an IC50 in assay [3] of 350 nM. In addition, the inhibition in assay [1] came out at 90%.

Take `CC(=O)c1ccc(NC(=O)O/N=C2\CCCC3=C2C2CCCC2N3)cc1` (stereo unspecified): in assay [1], the inhibition amounted to 79%.

For `CCc1c2c(n(C)c1C)CCC/C2=N\OC(=O)Nc1ccc(C(C)=O)cc1`, in assay [3], the IC50 was found to be 368 nM. This compound came in with an inhibition in assay [1] of 96%. As to `Cc1[nH]c2c(c1C)/C(=N/OC(=O)Nc1ccccc1)CCC2`, in assay [1], the inhibition worked out at 57%. For `O=C(Nc1ccc(Cl)cc1)O/N=C1\CCCC2=C1C1CCCC1N2` (stereo unspecified), the inhibition in assay [1] was 58%.

The compound `CCc1c(C)[nH]c2c1/C(=N/OC(=O)Nc1cccc(SC)c1)CCC2` came in with an inhibition in assay [1] of 73%. Still for that read-out and setting: the figure for `CCc1c2c(n(C)c1CC)CCC/C2=N\OC(=O)Nc1ccc(C(C)=O)cc1` is 92%.
